Bridge positions count the residues as written; N and C are the ends. Square brackets hold non-standard residues; d marks the D form. Peptide text beside a SMILES is read from it. NMeF = CN[C@@H](Cc1ccccc1)C(=O)O; dOrn = NCCC[C@@H](N)C(=O)O
What was measured:
[1] = test system: Kunming male mice; assay: Analgesic tolerance assay, oral injection for 8 consecutive days; format: in vivo; settings: 8 consecutive days of oral injection, tail flick latency
Procedure: The analgesic tolerance experiment was conducted by orally injecting compounds 1 and 11 for 8 consecutive days, and then identifying the changes in the analgesic tail flick threshold from the first day to the eighth day through a photothermal tail flick experiment, thus evaluating the pharmacological activity of compounds 1 and 11 in the present invention in terms of analgesic tolerance.
21±2 g Kunming male mice were selected for the experiment, and the mice were eat freely. Generally, the basic pain threshold of mice was measured on the first day, followed by oral injection of compounds 1 and 11 for 8 consecutive days. The pain threshold at different time points was measured on the first day, and only the pain threshold at the highest analgesic point was measured on the following 7 days.
The experimental data was represented by tail flick time. The analgesic tolerance of drugs was compared using the tail flick latency at the maximum analgesic effect time point of different compounds. The tail flick latency data was represented by mean±S.E.M. The differences of analgesic effects of […] administration for eight days in mice were analyzed using one-way ANOVA (Tukey HSD test). *P<0.05, **P<0.01, and ***P<0.001 indicated a significant difference in analgesic effects compared to the injection of the drug on the first day.

[2] = test system: Kunming male mice; assay: Photothermal tail flick experiment, oral administration; format: in vivo; settings: for Maximum analgesic time: oral administration at the maximum analgesic dose; for Maximum analgesic time / analgesic duration: tail flick; for ED50 value (95% confidence interval), oral analgesic activity / analgesic duration: oral administration; for ED50 value (95% confidence interval), oral analgesic activity: photothermal tail flick
Procedure: Two administration methods were used: peripheral subcutaneous administration and oral administration. Subsequently, the analgesic activity of the drug was studied using an acute pain model of photothermal tail flick in mice.
1 mL sterile syringe was used for oral administration (p.o.), the pinhead was replaced with a mouse gastric lavage needle, and […] of the drug was orally administered. The skin on the neck and back of the mouse was grasped with the left hand with the abdomen facing upwards. Noted that the mouse's entire body was fixed to vertical, which was beneficial for oral gavage. A gastric lavage needle (No. 12 needle and 1 mL syringe) was held in the right hand and was inserted to the esophagus along the upper jaw which is pressed the tongue tightly from the corner of the mouse's mouth. Gastric lavage fluid can be injected when the needle inserted 2.5 cm. The inserting length of the needle should be determined through practice in advance, as there is a sense of falling into a hole after the needle is inserted. If the injection position was appropriate, it should be very smooth. […] This can cause immediate death of the mouse after gavage.
The photothermal tail flick experiment is based on the experimental method summarized by D'Amour and Smith to optimize the experimental parameters. The experiment selected Kunming male mice with body weigh 21±2 g, and ambient temperature controlled at 22±2° C. The experimental mice were allowed to drink water freely and were moved from the breeding room to the experimental area for adaptation for 30 minutes before starting the experiment. Then the mice were grab with the right hand and the tail hang freely. Then the mice's tail were placed on a radiation light source, 2-3 mm away from the mice tail. The intensity of radiation heat was adjusted to the tail flick time of mice being 3-5 s, which is the basic pain threshold of photothermal tail flick. The irradiation time of the mice tail should not exceed 10 s to prevent scalding of the mice tail, which was the maximum latency for photothermal tail flick. After administration, time points of 10, 20, 30, 45, 60, 90, 120, 180, 240, 300, 360, and 420 minutes were selected to measure the tail flick latency of mice after administration.
The analgesic effect of drugs was generally evaluated using the maximum analgesic effect MPE (%), MPE (%)=100×[(pain threshold after administration−basic pain threshold)/(10 seconds−basic pain threshold)]. 50% effective dose (ED50) refers to the corresponding drug dose that causes a 50% effect. ED50 and 95% confidence interval were calculated using MPE (%) and the drug concentration that achieves the maximum analgesic effect MPE (%) by the statistical software GraphPad Prism 5.0. The difference in analgesic effects was statistically analyzed using one-way ANOVA (Dunnett test), *P<0.05, **P<0.01, and ***P<0.001 indicated significance of the difference between the group with only drug injected and the saline group.

[3] = target: T1, Delta-opioid receptor (Homo sapiens, UniProt P41143); assay: cAMP functional experiment, Delta-opioid receptor (forskolin-induced cAMP accumulation); format: cell-based
T1 construct: expressed in transfected cells; host or cells: HEK293
T1 sequence (P41143 whole entry): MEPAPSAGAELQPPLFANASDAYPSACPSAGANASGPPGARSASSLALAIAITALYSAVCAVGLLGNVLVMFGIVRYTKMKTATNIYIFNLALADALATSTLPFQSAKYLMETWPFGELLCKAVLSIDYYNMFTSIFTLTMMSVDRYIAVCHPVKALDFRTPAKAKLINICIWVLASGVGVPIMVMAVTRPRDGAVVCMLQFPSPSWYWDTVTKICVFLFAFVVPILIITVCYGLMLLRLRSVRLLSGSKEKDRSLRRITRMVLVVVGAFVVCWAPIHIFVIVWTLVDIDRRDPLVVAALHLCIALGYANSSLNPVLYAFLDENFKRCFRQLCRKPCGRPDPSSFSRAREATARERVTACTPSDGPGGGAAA
Procedure: The agonistic activity of the cyclopeptide molecule of the present invention against Mu-opioid receptor, Delta-opioid receptor, Kappa-opioid receptor, NPFF1 receptor and NPFF2 receptor was evaluated by detecting the regulation of the cyclopeptide molecule of the present invention on the intracellular accumulation of cyclic adenosine monophosphate (cAMP) induced by Forskolin in HEK293 cells stably expressing these five receptors. The experimental method was: the cells were seeded in 24 well plates with 120000 cells per well, and were cultured for more than 20 hours. At the beginning of the experiment, the culture medium in the culture dish was suck out, and then 500 μL of preheated serum-free medium containing 1 mM of IBMX was added, the mixture was incubated at 37° C. for 10 minutes. Then each 10 μL of the drug to be tested and 10 μM of forskolin (final concentration) were added to each well. The mixture was incubated at 37° C. for 30 minutes. After incubation, all the liquid was suck out from the culture dish, 500 μL of 0.2 N hydrochloric acid was added to each well, the mixture was incubated at room temperature for 30 minutes to promote cell lysis. After lysis was complete, NaOH was added to neutralize the hydrochloric acid solution used for lysis. Then all the liquid was suck out from the culture dish into centrifuge tubes, the liquid was centrifuged at 12000 rpm for 2 minutes. 50 μL was taken to a clean centrifuge tube, 100 μL of 60 μg/μL PKA was added, and 100 μL of TE cAMP buffer was added to the blank control group (B). Another 50 μL of 0.5 μ Ci[^3H]cAMP was added to each of the above centrifuge tubes, the mixture was quickly mixed and incubated at 4° C. for more than 2 hours. After incubation, another 100 μL of activated carbon suspension was added to each tube, the mixture was vortex agitated evenly, placed in an ice bath for 1 minute, centrifuged at 5000 rpm for 4 minutes. 200 μL of supernatant after centrifugation in each tube was suck out to a 24 well plate, with an additional 700 μL of scintillator liquid added per well, then the 24 well plate was sealed with adhesive film, placed for 3 hours, then placed on the scintillation instrument for measurement.
The inhibitory effect of cAMP was represented by the percentage (% control) of drug inhibition of intracellular cAMP accumulation induced by Forskolin, wherein % control=(cAMP content when treated with Forskolin−cAMP content when Forskolin co-treated with the test drug)/(cAMP content when treated with Forskolin−cAMP content when treated with solvent). The related % control data was represented by mean±S.E.M. The dose-effect relationship of the drug was statistically analyzed using a nonlinear regression model, and the IC50 values of the multi-target cyclopeptide molecule on inhibition of Forskolin induced intracellular cAMP accumulation were calculated using the statistical software GraphPad Prism version 5.0.

| SMILES | analgesic tolerance [1] | Maximum analgesic time [2] | ED50 value (95% confidence interval), oral analgesic activity [2] | analgesic duration [2] | IC50 [3] |
| --- | --- | --- | --- | --- | --- |
| CN1C(=O)CNC(=O)[C@H](NC(=O)[C@@H](N)Cc2ccc(O)cc2)CCCCNC(=O)C[C@@H](C(=O)N2CCC[C@H]2C(=O)N[C@@H](CCC(N)=O)C(=O)N[C@@H](CCCNC(=N)N)C(=O)N[C@@H](Cc2ccccc2)C(N)=O)NC(=O)[C@@H]1Cc1ccccc1 [Compound 1, Tyr-c[D-Lys-Gly-NMe-Phe-Asp]-Pro-Gln-Arg-Phe-NH2] (H-Y[dK]G[NMeF]DPQRF-NH2; lactam 2-5) | no analgesic tolerance observed | 30 min | 1.37 µg/kg | 240 min | 549 nM |
| CN1C(=O)CNC(=O)[C@H](NC(=O)[C@@H](N)Cc2ccc(O)cc2)CCCNC(=O)CC[C@@H](C(=O)N2CCC[C@H]2C(=O)N[C@@H](CCC(N)=O)C(=O)N[C@@H](CCCNC(=N)N)C(=O)N[C@@H](Cc2ccccc2)C(N)=O)NC(=O)[C@@H]1Cc1ccccc1 [Compound 11, Tyr-c^[2,5][D-Orn-Gly-NMe-Phe-Glu]-Pro-Gln-Arg-Phe-NH2] (H-Y[dOrn]G[NMeF]EPQRF-NH2; lactam 2-5) | no analgesic tolerance observed | 20 min | 0.14 µg/kg | 240 min | 1560 nM |
